Experimental data from patent publication US20260274829A1, “NEW E3 UBIQUITIN LIGASE LIGAND, PROTEIN DEGRADATION AGENT AND USE THEREOF” (GLUETACS THERAPEUTICS (SHANGHAI) CO., LTD., priority 2023, published 2026).
Where two headings read alike, the source gives them in different places.

Tests used:
[1] = system: MM.1S (MM1S); assay: CCK-8 tumor cell proliferation IC50, MM.1S; details: MM.1S cells, compounds designed based on the IRAK4 inhibitors, read-out: Inhibitory activity (IC50, nM) on tumor cell proliferation, MM.1S
Procedure: (§1) The tumor cells used herein were cultured in a cell culture medium listed in table A1 at 37° C. in an incubator with 5% CO2. Prior to experimentation, all cell lines used were correctly identified by STR profiling, and tested negative for mycoplasma contamination using a mycoplasma detection kit through routine screenings.
(§2) IC50 values of the compounds of the present disclosure (including the compounds in Table 1, and compounds of examples) were measured using the Meilun Cell Counting Kit-8 kit from Dalian Meilun Biotech Co., Ltd. Assay details are as follows: tumor cells were seeded in a 96-well plate at a density listed in Table A2. After 24 h, 100 μL of the inoculated cells were treated with 0.5 μL of the compounds of the present disclosure (including the compounds in Tables 1 and 2, and compounds of examples) at 10 different successively decreasing concentrations (starting at the highest concentration of 1 μM; 5-fold serial dilutions). After the cells were treated with the compounds of the present disclosure for a period of time, the cell viability detection reagent was added to the culture medium for cell viability assessment according to the instructions provided with the CCK-8 kit. […] The growth inhibition of the compounds of the present disclosure on cells was plotted by Prism Graphpad software, and the IC50 values of the compounds of the present disclosure were calculated therefrom.

[2] = system: MGC-803 (MGC80-3, MGC803); assay: CCK-8 tumor cell proliferation IC50, MGC-803; parameters: species or system human; details: MGC803 cells, compounds designed based on the IRAK4 inhibitors, read-out: Inhibitory activity (IC50, nM) on tumor cell proliferation, MGC803
Procedure: as §1, §2

[3] = system: H1299; assay: CCK-8 tumor cell proliferation IC50, H1299; parameters: species or system human; details: compounds designed based on the IRAK4 inhibitors, read-out: Inhibitory activity (IC50, nM) on tumor cell proliferation, H1299
Procedure: as §1, §2

[4] = system: NCI-H1975 (H1975); assay: CCK-8 tumor cell proliferation IC50, NCI-H1975; details: Homo sapiens, Table B3, designed based on the EGFR inhibitors, 96 hours, read-out: Inhibitory activity (IC50, nM) on tumor cell proliferation: H1975
Procedure: as §1
as §2, with “dilutions).” for “dilutions). After the cells were treated with the compounds of the present disclosure for a period of time, the cell viability detection reagent was added to the culture medium for cell viability assessment according to the instructions provided with the CCK-8 kit.”

[5] = system: CCRF-CEM; assay: CCK-8 tumor cell proliferation IC50, CCRF-CEM; details: Homo sapiens, CCRF-CEM cells, compounds designed based on the IRAK4 inhibitors, read-out: Inhibitory activity (IC50, nM) on tumor cell proliferation, CCRF-CEM
Procedure: as §1
as §2, with “dilutions).” for “dilutions). After the cells were treated with the compounds of the present disclosure for a period of time, the cell viability detection reagent was added to the culture medium for cell viability assessment according to the instructions provided with the CCK-8 kit.”

[6] = system: SR; assay: CCK-8 tumor cell proliferation IC50, SR; details: Homo sapiens, SR cells, compounds designed based on the IRAK4 inhibitors, read-out: Inhibitory activity (IC50, nM) on tumor cell proliferation, SR
Procedure: as §1
as §2, with “dilutions).” for “dilutions). After the cells were treated with the compounds of the present disclosure for a period of time, the cell viability detection reagent was added to the culture medium for cell viability assessment according to the instructions provided with the CCK-8 kit.”

[7] = system: MV-4-11; assay: CCK-8 tumor cell proliferation IC50, MV-4-11; details: Homo sapiens, MV4-11, MV-4-11 cells, compounds designed based on the IRAK4 inhibitors, read-out: Inhibitory activity (IC50, nM) on tumor cell proliferation, MV-4-11
Procedure: as §1
as §2, with “dilutions).” for “dilutions). After the cells were treated with the compounds of the present disclosure for a period of time, the cell viability detection reagent was added to the culture medium for cell viability assessment according to the instructions provided with the CCK-8 kit.”

[8] = system: LNcap; assay: CCK-8 tumor cell proliferation IC50, LNcap; details: Homo sapiens, Lncap cells, compounds designed based on the IRAK4 inhibitors, read-out: Inhibitory activity (IC50, nM) on tumor cell proliferation, Lncap
Procedure: as §1
as §2, with “dilutions).” for “dilutions). After the cells were treated with the compounds of the present disclosure for a period of time, the cell viability detection reagent was added to the culture medium for cell viability assessment according to the instructions provided with the CCK-8 kit.”

[9] = system: Jurkat; assay: CCK-8 tumor cell proliferation IC50, Jurkat; details: Homo sapiens, Jurkat cells, compounds designed based on the IRAK4 inhibitors, read-out: Inhibitory activity (IC50, nM) on tumor cell proliferation, Jurkat
Procedure: as §1
as §2, with “dilutions).” for “dilutions). After the cells were treated with the compounds of the present disclosure for a period of time, the cell viability detection reagent was added to the culture medium for cell viability assessment according to the instructions provided with the CCK-8 kit.”

[10] = system: MM.1R; assay: CCK-8 tumor cell proliferation IC50, MM.1R; details: Table B4, designed based on the CDK4/6 inhibitors, 72 hours, read-out: Inhibitory activity (IC50, nM) on tumor cell proliferation: MM.1R
Procedure: as §1
as §2, with “dilutions).” for “dilutions). After the cells were treated with the compounds of the present disclosure for a period of time, the cell viability detection reagent was added to the culture medium for cell viability assessment according to the instructions provided with the CCK-8 kit.”

| SMILES | IC50 [1] [nM] | IC50 [2] [nM] | IC50 ([3]; H1299 cells) [nM] | further results |
| --- | --- | --- | --- | --- |
| CC[C@@H]1[C@H](F)C(=O)N[C@@H]1COc1nccc2cc(C(N)=O)c(OC)cc12 [PF06650833, reference compound] | > 10000 | 5000 to 10000 | 5000 to 10000 | – |
| O=C1CCC(Nc2cccc(CN3CCC(N4CCN(c5ccc6c(c5)nc(NC(=O)c5cccc(C(F)(F)F)c5)n6[C@H]5CC[C@@H](CO)CC5)CC4)CC3)c2)C(=O)N1 (some centres unmarked) [GT-05023, N-(5-(4-(1-(3-((2,6-dioxopiperidin-3-yl)amino)benzyl)piperidin-4-yl)piperazin-1-yl)-1-((1s,4s)-4-(hydroxymethyl)cyclohexyl)-1H-benzo[d]imidazol-2-yl)-3-(trifluoromethyl)benzamide] | 500 to 1000 | – | – | – |
| O=C1CCC(c2ccc(CN3CCN(c4ccc5c(c4)nc(NC(=O)c4cccc(C(F)(F)F)c4)n5C4CCC(CO)CC4)CC3)cc2)C(=O)N1 (centres unmarked) [GT-04981, N-(5-(4-(4-(2,6-dioxopiperidin-3-yl)benzyl)piperazin-1-yl)-1-((1s,4s)-4-(hydroxymethyl)cyclohexyl)-1H-benzo[d]imidazol-2-yl)-3-(trifluoromethyl)benzamide] | 100 to 500 | 500 to 1000 | 500 to 1000 | – |
| O=C1CCN(c2ccc(CN3C4CCC3CN(c3ccc(-c5cc(F)c6c(c5)C(=O)N(C(C(=O)Nc5nccs5)c5ncn7c5CCC7)C6)cc3)C4)cn2)C(=O)N1 (centres unmarked) [GT-06256, 2-(6,7-dihydro-5H-pyrrolo[1,2-c]imidazol-1-yl)-2-(6-(4-(8-((6-(2,4-dioxotetrahydropyrimidin-1(2H)-yl)pyridin-3-yl)methyl)-3,8-diazabicyclo[3.2.1]octan-3-yl)phenyl)-4-fluoro-1-oxoisoindolin-2-yl)-N-(thiazol-2-yl)acetamide] | – | – | – | IC50 [4]: 1 to 10 nM |
| O=C1CCC(Nc2cccc(CN3CCN(Cc4ccc5c(c4)nc(NC(=O)c4cccc(C(F)(F)F)c4)n5C4CCC(CO)CC4)CC3)c2)C(=O)N1 (centres unmarked) [GT-04976, N-(5-((4-(3-((2,6-dioxopiperidin-3-yl)amino)benzyl)piperazin-1-yl)methyl)-1-((1s,4s)-4-(hydroxymethyl)cyclohexyl)-1H-benzo[d]imidazol-2-yl)-3-(trifluoromethyl)benzamide] | 100 to 500 | – | – | – |
| O=C1CCN(c2ccc(CN3CCN(c4ccc5c(c4)nc(NC(=O)c4cccc(C(F)(F)F)c4)n5[C@H]4CC[C@@H](CO)CC4)CC3)nc2)C(=O)N1 [GT-04986, N-(5-(4-((5-(2,4-dioxotetrahydropyrimidin-1(2H)-yl)pyridin-2-yl)methyl)piperazin-1-yl)-1-((1s,4s)-4-(hydroxymethyl)cyclohexyl)-1H-benzo[d]imidazol-2-yl)-3-(trifluoromethyl)benzamide] | 100 to 500 | 100 to 500 | 100 to 500 | – |
| Cc1cc(-c2nc(C(=O)Nc3cc4oc(N5CCOCC5)nc4nc3N3CC[C@@H](O)C3)co2)ccn1 [emavusertib] | – | – | – | IC50 [5]: > 10000 nM; IC50 [6]: > 10000 nM; IC50 [7]: 50 to 100 nM; IC50 [8]: > 10000 nM; IC50 [9]: > 10000 nM; IC50 ([3]; Homo sapiens, NCI-H1299, H1299 cells): > 10000 nM |
| O=C1CCN(c2ccc(CN3CCN(c4ccc5c(c4)nc(NC(=O)c4cccc(C(F)(F)F)c4)n5[C@H]4CC[C@@H](CO)CC4)CC3)cc2)C(=O)N1 [GT-04982, N-(5-(4-(4-(2,4-dioxotetrahydropyrimidin-1(2H)-yl)benzyl)piperazin-1-yl)-1-((1s,4s)-4-(hydroxymethyl)cyclohexyl)-1H-benzo[d]imidazol-2-yl)-3-(trifluoromethyl)benzamide] | 50 to 100 | 100 to 500 | 100 to 500 | – |
| O=C1CCC(Nc2cccc(CN3C4CCC3CN(c3ccc(-c5cc(F)c6c(c5)C(=O)N(C(C(=O)Nc5nccs5)c5ncn7c5CCC7)C6)cc3)C4)c2)C(=O)N1 (centres unmarked) [GT-06257, 2-(6,7-dihydro-5H-pyrrolo[1,2-c]imidazol-1-yl)-2-(6-(4-(8-(3-((2,6-dioxopiperidin-3-yl)amino)benzyl)-3,8-diazabicyclo[3.2.1]octan-3-yl)phenyl)-4-fluoro-1-oxoisoindolin-2-yl)-N-(thiazol-2-yl)acetamide] | – | – | – | IC50 [4]: 1 to 10 nM |
| CCN1CCN(Cc2ccc(Nc3ncc(F)c(-c4cc(F)c5nc(C)n(C(C)C)c5c4)n3)nc2)CC1 [abemaciclib] | – | – | – | IC50 [10]: 1000 to 5000 nM |
